Experimental data as given in patent US6410585B1, “Inhibitors of protein tyrosine phosphatase” (priority 1997, dated 2002).
Several values for one entry are separate records, joined by “and”; a condition that tells them apart may be missing. Identical values can stand only once. Like-named read-outs stand apart in the source and are kept apart here.

Assays:
[1] = target: T1, human PTP1B (Homo sapiens, UniProt P18031); assay: PTP1B assay, pNPP hydrolysis, assayed exactly as for PTP1; format: biochemical; details: for inhibition at 1 µM / inhibition at 10 µM / inhibition at 100 µM: Table 2, read-out: PTP1B Inhib PTP1B. % Inhib; for PTP1B Inhib PTP1B. % Inhib: Table 2
T1 construct: human PTP1B (amino acid residues 1-321); made in house; host or cells: E. coli BL21(DE3)
T1 sequence (P18031 1-321): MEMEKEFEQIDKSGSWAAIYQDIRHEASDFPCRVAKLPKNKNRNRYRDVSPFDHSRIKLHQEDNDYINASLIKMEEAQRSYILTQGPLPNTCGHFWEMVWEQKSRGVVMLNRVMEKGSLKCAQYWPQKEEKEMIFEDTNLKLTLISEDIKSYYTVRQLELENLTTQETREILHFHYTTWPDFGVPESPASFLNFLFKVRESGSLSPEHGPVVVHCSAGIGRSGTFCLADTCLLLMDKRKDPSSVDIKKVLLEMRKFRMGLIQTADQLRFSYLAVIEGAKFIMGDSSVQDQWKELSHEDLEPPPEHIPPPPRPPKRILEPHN
Text: The equivalent construct of human PTP1B (amino acid residues 1-321) (cloned from a human placental library), without the GST tag and thrombin cleavage site, was inserted into a pMB replicon and transformed into E. coli BL21(DE3), a strain containing a chromosomal copy of the gene for T7 RNA polymerase under control of a lacUV5 promoter. Expression of PTP1B was induced with isopropyl thiogalactose and the soluble protein was purified by ion exchange, hydrophobic interaction and gel exclusion chromatography for use in the assay to identify PTP inhibitors.
PTP1 activity is measured using either p-nitrophenol phosphate (pNPP) or a triphosphopeptide (that matches residues 1142 through 1153 of the β-subunit and the insulin receptor) as substrate in a 96-well microtiter plate format. An assay pH of 7.2 is used for standard assays (measured 405=9800 at pH 7.2).
Human PTP1B, which is highly homologous to rat PTP1, was assayed exactly as described above for PTP1.
Standard assays are conducted at room temperature in a total volume of 0.2 ml that contains Hepes buffer (50 mM, pH 7.2), NaCl (50 mM), EDTA (1 mM), DTT (1 mM), bovine serum albumin (1 mg/ml), pNPP (1 mM) and PTP1 (35 ng/ml). Compounds (2 μl of 10 mM solutions) are pipetted into wells of microtiter plates followed by 198 μl of premixed reaction mix (with PTP1 and pNPP added immediately before use). The rate of change in A405 is recorded for 60 min. Two wells on each plate contain DMSO controls and two wells contain sodium orthovanadate (1 mM) which inhibits PTP1-catalyzed hydrolysis of pNPP completely. Data are expressed as percent inhibition relative to the average of the DMSO controls measured on the same microtiter plate.

[2] = target: T2, rat PTP1 (Rattus norvegicus, UniProt P20417); assay: PTP1 assay, pNPP hydrolysis (rate of change in A405); format: biochemical
T2 construct: a C-terminal truncation of rat PTP1 (amino acid residues 1-322); GST (N, cleaved yes); made in house; host or cells: E. coli strain TG-1 (pGEX-2T)
T2 sequence (P20417 1-322): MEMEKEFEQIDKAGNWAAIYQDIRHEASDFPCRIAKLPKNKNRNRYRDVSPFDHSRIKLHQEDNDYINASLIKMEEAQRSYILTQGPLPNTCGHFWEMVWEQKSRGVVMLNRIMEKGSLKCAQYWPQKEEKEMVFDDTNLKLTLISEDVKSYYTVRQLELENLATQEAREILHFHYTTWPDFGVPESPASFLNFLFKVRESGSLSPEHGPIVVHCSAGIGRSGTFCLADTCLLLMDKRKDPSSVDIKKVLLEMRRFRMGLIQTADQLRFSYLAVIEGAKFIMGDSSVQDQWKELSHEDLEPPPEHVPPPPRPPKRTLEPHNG
In short: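 Thrombin-cleaved rat PTP1 residues 1-322 (35 ng/ml) with 1 mM pNPP in 50 mM Hepes pH 7.2, NaCl, EDTA, DTT, BSA at room temperature. A405 rate followed 60 min. Compounds added as 10 mM solutions; percent inhibition relative to plate DMSO controls, 1 mM orthovanadate as full-inhibition control.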

[3] = Conc 1 uM, pNPP hydrolysis, Table 1, read-out: PTP1 Inhib % Inhib
[4] = Conc 10 uM, pNPP hydrolysis, Table 1, read-out: PTP1 Inhib % Inhib
[5] = Conc 100 uM, pNPP hydrolysis, Table 1, read-out: PTP1 Inhib % Inhib

Structure (SMILES)	inhibition at 1 µM ([1]; Conc 1 uM)	inhibition at 10 µM ([1]; Conc 10 uM)	inhibition at 100 µM ([1]; Conc 100 uM)	also measured
CCCCCNC(=O)C(Cc1ccc(OC(COO)COO)cc1)NC(=O)C(Cc1ccccc1)NC(=O)CCN(CC)CC (centres unmarked)	12%	54%	92%	–
CCCCCNC(=O)C(Cc1ccc(OC(COO)COO)cc1)NC(=O)C(Cc1cccc2ccccc12)NC(=O)OC(C)(C)C (centres unmarked)	3%	33%	86%	–
CCCCCNC(=O)C(Cc1ccc(OC(COO)COO)cc1)NC(=O)Nc1cccc(C(=O)O)c1 (centres unmarked)	17%	63%	94%	–
CCCCCNC(=O)C(Cc1ccc(OCCOO)c(COO)c1)NC(=O)C(Cc1ccccc1)NC(=O)OC(C)(C)C (centres unmarked) [drawing 189]	–	–	–	PTP1B Inhib PTP1B. % Inhib ([1]; Conc 1 uM): 2%; PTP1B Inhib PTP1B. % Inhib ([1]; Conc 10 uM): 19%; PTP1B Inhib PTP1B. % Inhib ([1]; Conc 100 uM): 69%
CCCCCNC(=O)C(Cc1ccc(OC(COO)COO)cc1)NC(=O)C(COCc1ccccc1)NC(=O)OC(C)(C)C (centres unmarked)	3%	19%	71%	–
CC(C)(C)OC(=O)N[C@@H](Cc1ccccc1)C(=O)N[C@H](CO)Cc1ccc(OCC(=O)O)c(C(=O)O)c1 [drawing 222]	5%	31%	80%	–
CCCCCNC(=O)C(Cc1ccc(OC(COO)COO)cc1)NC(=O)N(Cc1cccc(C(=O)O)c1)Cc1cccc(C(F)(F)F)c1 (centres unmarked)	3%	9%	58%	–
CCCCCNC(=O)C(Cc1ccc(OCC(=O)O)c(OCC(=O)O)c1)NC(=O)C(Cc1ccccc1)NC(=O)OC(C)(C)C (centres unmarked)	1%	5%	25%	–
CCCCCNC(=O)C(Cc1ccc(OC(COO)COO)cc1)NC(=O)C(CCc1ccccc1)NC(=O)OC(C)(C)C (centres unmarked)	2%	–	58%	PTP1B Inhib PTP1B. % Inhib ([1]; Conc 10 uM): 7% and 17%; PTP1B Inhib PTP1B. % Inhib ([1]; Conc 100 uM): 77%
CCCCCNC(=O)C(Cc1ccc(OCCOO)c(COO)c1)NC(=O)C(Cc1ccccc1)NC(=O)Cc1ccc(OC)cc1 (centres unmarked)	46%	87%	97%	–
CCCCCNC(=O)C(Cc1ccc(OCCOO)c(COO)c1)NC(=O)C(Cc1ccccc1)NC(=O)Cc1ccc(C)cc1 (centres unmarked)	39%	85%	98%	–
CCCCCNC(=O)C(Cc1ccc(OC(C(=O)O)C(=O)O)cc1)NC(=O)[C@H](Cc1c[nH]c2ccccc12)NC(=O)OC(C)(C)C (some centres unmarked)	10%	44%	89%	–
CCCCCNC(=O)C(Cc1ccc(OCCOO)c(COO)c1)NC(=O)C(Cc1ccccc1)NC(=O)CCNS(C)(=O)=O (centres unmarked)	15%	73%	95%	–
CCCCCNC(=O)C(Cc1ccc(OC(COO)COO)cc1)NC(=O)C(CSCc1ccccc1)NC(=O)OC(C)(C)C (centres unmarked)	2%	14%	75%	PTP1B Inhib PTP1B. % Inhib ([1]; Conc 1 uM): 3%; PTP1B Inhib PTP1B. % Inhib ([1]; Conc 10 uM): 16%; PTP1B Inhib PTP1B. % Inhib ([1]; Conc 100 uM): 83%
CCCCCNC(=O)C(Cc1ccc(OCCOO)c(COO)c1)NC(=O)C(Cc1ccccc1)NC(=O)CCc1ccccc1 (centres unmarked)	22%	74%	95%	–
CCCCCNC(=O)C(Cc1ccc(OC(COO)COO)cc1)NC(=O)N(Cc1ccccc1)C(CCc1ccccc1)CC(=O)O (centres unmarked)	5%	8%	42%	–

Structure (SMILES)	inhibition at 1 µM ([1]; Conc 1 uM)	inhibition at 10 µM ([1]; Conc 10 uM)	inhibition at 100 µM ([1]; Conc 100 uM)	also measured
CCCCCNC(=O)[C@H](Cc1ccc(OCC(=O)NO)c(C(=O)O)c1)NC(=O)[C@H](Cc1ccccc1)NC(=O)OC(C)(C)C	6%	8%	30%	–
CCCCCNC(=O)C(Cc1ccc(OC(COO)COO)cc1)NC(=O)C(Cc1ccccc1)NS(=O)OCc1ccccc1 (centres unmarked)	4%	16%	62%	–
CCCCCNC(=O)C(Cc1ccc(OCCOO)c(COO)c1)NC(=O)C(Cc1ccccc1)NC(=O)CCC(=O)O (centres unmarked)	64%	93%	98%	PTP1B Inhib PTP1B. % Inhib ([1]; Conc 1 uM): 66%; PTP1B Inhib PTP1B. % Inhib ([1]; Conc 10 uM): 92%
CCCCCNC(=O)[C@H](Cc1ccc(OCC(=O)O)c(C(=O)O)c1)NC(=O)C(Cc1ccccc1)N1CCCC1=O (some centres unmarked)	24%	71%	94%	–
CCCCCNC(=O)[C@H](Cc1ccc(OCC(=O)O)c(-c2nn[nH]n2)c1)NC(=O)[C@H](Cc1ccccc1)NC(=O)OC(C)(C)C	–	–	87%	PTP1B Inhib PTP1B. % Inhib ([1]; Conc 100 uM): 97%
CCCCCNC(=O)C(Cc1ccc(OC(COO)COO)cc1)NC(=O)C(Cc1ccc(O)cc1)NC(=O)OC(C)(C)C (centres unmarked)	10%	50%	90%	–
CCCCCNC(=O)C(Cc1ccc(OCCOO)c(COO)c1)NC(=O)C(Cc1ccccc1)NC(=O)Cc1ccc(O)cc1 (centres unmarked)	46%	88%	98%	–
CCCCCNC(=O)[C@H](Cc1ccc(OCC(=O)O)c(C(=O)O)c1)NC(=O)C(Cc1ccccc1)NC(=O)Cn1nnnc1S (some centres unmarked)	57%	91%	98%	–
CCCCCNC(=O)C(Cc1ccc(OCCOO)c(COO)c1)NC(=O)C(Cc1ccc(O)cc1)NC(=O)OC(C)(C)C (centres unmarked)	32%	81%	97%	PTP1B Inhib PTP1B. % Inhib ([1]; Conc 1 uM): 28%; PTP1B Inhib PTP1B. % Inhib ([1]; Conc 10 uM): 78%; PTP1B Inhib PTP1B. % Inhib ([1]; Conc 100 uM): 96%
CCCCCNC(=O)[C@H](Cc1ccc(OC(C(=O)O)C(=O)O)cc1)NC(=O)C1C(C(=O)O)[C@@H]2CC[C@@H]1C2 (some centres unmarked)	–	–	–	inhibition at 1 µM [2, 3]: 0%; inhibition at 10 µM [2, 4]: 4%; inhibition at 100 µM [2, 5]: 37%
CCCCCNC(=O)C(Cc1ccc(OC(COO)COO)cc1)NC(=O)C(Cc1ccc(OC)cc1)NC(=O)CCC(=O)O (centres unmarked)	–	–	–	inhibition at 1 µM ([2]; Conc 1 uM, pNPP hydrolysis, Table 2, read-out: PTP1 Inhib PTP1N. % Inhib): 32%; inhibition at 10 µM ([2]; Conc 10 uM, pNPP hydrolysis, Table 2, read-out: PTP1 Inhib PTP1N. % Inhib): 83%; inhibition at 100 µM ([2]; Conc 100 uM, pNPP hydrolysis, Table 2, read-out: PTP1 Inhib PTP1N. % Inhib): 98%
CC(C)(C)OC(=O)N[C@@H](Cc1ccccc1)C(=O)N[C@H](CO)Cc1ccc(OCC(=O)O)c(C(=O)O)c1 [Example 148, 5-[(2S)-2-({(2S)-2-[(tert-butoxycarbonyl)amino]-3-phenylpropanoyl}amino)-3-hydroxypropyl]-2-(carboxymethoxy)benzoic Acid]	–	–	–	inhibition at 1 µM ([2]; inhibition of pNPP-hydrolysis, compound concentration 1 μM, read-out: % Inhibition): 5%; inhibition at 10 µM ([2]; inhibition of pNPP-hydrolysis, compound concentration 10 μM, read-out: % Inhibition): 31%; inhibition at 100 µM ([2]; inhibition of pNPP-hydrolysis, compound concentration 100 μM, read-out: % Inhibition): 80%
CCCCCNC(=O)[C@H](Cc1ccc(OC(C(=O)O)C(=O)O)cc1)NC(=O)CC(C)(C)CC(=O)O	–	–	–	inhibition at 1 µM [2, 3]: 0%; inhibition at 10 µM [2, 4]: 18%; inhibition at 100 µM [2, 5]: 67%
O=C(O)CCC(=O)NC(Cc1ccc(OC(COO)COO)cc1)C(=O)NCc1ccc2c(c1)OCO2 (centres unmarked)	–	–	–	inhibition at 1 µM [2, 3]: 12%; inhibition at 10 µM [2, 4]: 24%; inhibition at 100 µM [2, 5]: 63%
CCCCCNC(=O)C(Cc1ccc(OC(COO)COO)cc1)NC(=O)CCC(=O)OCc1ccccc1 (centres unmarked)	–	–	–	inhibition at 1 µM [2, 3]: 4%; inhibition at 10 µM [2, 4]: 9%; inhibition at 100 µM [2, 5]: 39%
